We go through 5 substances from US11471558B2, “Polypeptide and hyaluronic acid coatings” (INSTITUT NATIONAL DE LA SANTE ET DE LA RECHERCHE MEDICALE …, priority 2016, dated 2022).

Experiment [1] deals with S. aureus. To be noted: Adv. Funct. Mater. 2013, 23, 4801-4809; cited from earlier work.
Experiment [2] relates to S. aureus. In words: Minimal inhibitory concentration of PAR in solution. It is filed as cell-based. To be noted: for times less active than PAR100 or PAR200 chains (from MICs in solution): per chain; for bacterial growth inhibition by PAR in solution: 1 μM. Here is the method: Staphylococcus aureus (S. aureus, ATCC 25923) strains were used to assess the antibacterial properties of the test samples. Bacterial strain was cultured aerobically at 37° C. in a Mueller Hinton Broth (MHB) medium (Merck, Germany), pH 7.4. One colony was transferred to 10 mL of MHB medium and incubated at 37° C. for 20 h, to provide a final density of 10^6 CFU·mL^−1. To obtain bacteria in the mid logarithmic phase of growth, the absorbance at 620 nm of overnight culture was adjusted of 0.001.
In the following the inventors of the present invention wanted to further elucidate the underlying mechanism that confer to the coatings of the invention the strong inhibitory property on the surface and in the supernatant. As an example the (PAR30/HA)24 coating was further investigated. Accordingly, the minimal inhibitory concentration (MIC) of PAR in solution was determined using bacterial assay as described in Experimental Section. […] Finally for PAR at concentrations of 0.01 mg·mL^−1, inhibition of 100% was shown only for PAR30. Longer or shorter PAR chains (PAR10, PAR100 or PAR200) inhibits only partially (less than 40%) S. aureus growth. […] This reasoning is valid when PAR concentration values are expressed in mass (mg·mL^−1) thus it is related to the number of arginine monomers. However when the graph is plotted with concentrations in μM (and thus proportional in number of chains), which means that concentration is related to number of chains, different interpretation can be made. […] Moreover the MIC100 values obtained for PAR30, PAR100 or PAR200 ranges at very low concentrations (between 1 and 2 μM) which is remarkable when compared to well-known antimicrobial peptides (for example 30 μM for cateslytin with S. aureus, see Adv. Funct. Mater. 2013, 23, 4801-4809). PAR is thus a powerful candidate to fight against S. aureus.
FIG. 12: Graph with the Minimal inhibitory concentration (MIC100) of soluble PAR with 10, 30, 100 or 200 arginine residues. The Minimal inhibitory concentration (MIC100) leading to 100% inhibition of S. aureus were measured in solution. PAR with 10, 30, 100 or 200 arginine residues were tested.

Setting [3] is: concentrations up to 0.04 mg·mL−1.

As for cateslytin, in the experiment with S. aureus [1], the “MIC with S. aureus (antimicrobial peptide, literature)” value was 30 µM.
Take poly-L-arginine [PAR10]: the “S. aureus growth inhibition by PAR in solution” value (“S. aureus growth inhibition” below) with S. aureus [2] (0.03 mg·mL−1) is “total inhibition”; with S. aureus [2] (setting [3]) it was “totally inhibited”. The “times less active than PAR100 or PAR200 chains (from MICs in solution)” value in the experiment on S. aureus [2] was determined as 10 times.
In the case of poly-L-arginine [PAR30], the “S. aureus growth inhibition” value in the experiment on S. aureus [2] (0.01 mg·mL−1) is reported as 100%; in the experiment with S. aureus [2] (0.03 mg·mL−1), “total inhibition”; with S. aureus [2] (setting [3]), “totally inhibited”. Further, the MIC90 entry in the experiment on S. aureus [2] (PAR in solution, S. aureus) is “about 2 μM”. Also, the “times less active than PAR100 or PAR200 chains (from MICs in solution)” value in the experiment on S. aureus [2] is 2 times.
Consider poly-L-arginine [PAR100], for which the “bacterial growth inhibition by PAR in solution” value in the experiment on S. aureus [2] was “totally inhibit”. In addition, the “S. aureus growth inhibition” value is reported as “total inhibition” with S. aureus [2] (0.03 mg·mL−1) and “totally inhibited” with S. aureus [2] (setting [3]).
Consider poly-L-arginine [PAR200], for which, in the experiment with S. aureus [2], the “bacterial growth inhibition by PAR in solution” value is “totally inhibit”. Also, the entries for the “S. aureus growth inhibition” value with S. aureus [2] (0.03 mg·mL−1) and in the experiment with S. aureus [2] (setting [3]) were “about 45%” and “totally inhibited”, respectively.
